Reference: patent publication US8815919B2, “Oxadiazole derivatives” (Merck Serono SA, priority 2009, dated 2014)
Counter-ions that a name gives are not always drawn. Like-named read-outs stand apart in the source and are kept apart here.

Legend:
[1] = target: T1, S1P1 (Homo sapiens, UniProt P21453); assay: Receptor binding assay, [33P]sphingosine 1-phosphate competition, S1P1 membranes, WGA SPA beads
Summary of the method: (§1)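 Competition of [33P]S1P ([…]) on CHO cell membranes with WGA SPA beads in 50 mM HEPES pH 7.5, 5 mM MgCl2, 100 mM NaCl, 0.4% fatty acid-free BSA; 60 min at RT. Triplicates normalised to total binding and nonspecific binding (1000-fold excess unlabeled S1P).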
Target sequence in this assay (P21453 whole entry, species assumed): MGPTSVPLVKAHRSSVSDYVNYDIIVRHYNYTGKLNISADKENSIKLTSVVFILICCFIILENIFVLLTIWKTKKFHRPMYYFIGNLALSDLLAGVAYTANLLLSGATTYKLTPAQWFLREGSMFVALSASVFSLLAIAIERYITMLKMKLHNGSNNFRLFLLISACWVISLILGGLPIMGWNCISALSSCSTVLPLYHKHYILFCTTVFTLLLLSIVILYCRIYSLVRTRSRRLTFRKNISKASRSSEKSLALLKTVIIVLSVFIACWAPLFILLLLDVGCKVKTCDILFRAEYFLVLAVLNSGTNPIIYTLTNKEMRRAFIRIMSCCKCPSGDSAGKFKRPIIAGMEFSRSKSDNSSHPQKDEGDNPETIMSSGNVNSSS

[2] = target: T1, S1P1; assay: S1P1 internalization assay in S1P1-U2OS cells (S1P1-EGFP), cell imaging; assay type: cell-based; design: host or cells: U2OS (human bone osteosarcoma epithelial cells), CMV promoter, geneticin selection; details: 1 hour incubation
Summary of the method: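 U2OS cells stably expressing human S1P1-EGFP, plated overnight in 1% FCS medium, then serum-starved 2 h in 0.1% fatty-acid-free BSA before 1 h compound exposure at 37 °C. After PFA fixation and Hoechst staining, internalization imaged as EGFP spot count per nucleus.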
Target sequence in this assay (P21453 whole entry): as the sequence (P21453 whole entry, species assumed) above

[3] = target: S1P3 (Homo sapiens, UniProt Q99500); assay: Receptor binding assay, [33P]sphingosine 1-phosphate competition, S1P3 membranes, WGA SPA beads
Summary of the method: as §1

[4] = 96 well-plate, read-out: S1P1 binding Ki (M) (96 well-plate)
[5] = 384 well-plate, read-out: S1P1 binding Ki (M) (384 well-plate)
[6] = 96 well-plate, read-out: S1P3 binding Ki (M) (96 well-plate)
[7] = 384 well-plate, read-out: S1P3 binding Ki (M) (384 well-plate)

Chain of S1P3 (Q99500 whole entry, species assumed): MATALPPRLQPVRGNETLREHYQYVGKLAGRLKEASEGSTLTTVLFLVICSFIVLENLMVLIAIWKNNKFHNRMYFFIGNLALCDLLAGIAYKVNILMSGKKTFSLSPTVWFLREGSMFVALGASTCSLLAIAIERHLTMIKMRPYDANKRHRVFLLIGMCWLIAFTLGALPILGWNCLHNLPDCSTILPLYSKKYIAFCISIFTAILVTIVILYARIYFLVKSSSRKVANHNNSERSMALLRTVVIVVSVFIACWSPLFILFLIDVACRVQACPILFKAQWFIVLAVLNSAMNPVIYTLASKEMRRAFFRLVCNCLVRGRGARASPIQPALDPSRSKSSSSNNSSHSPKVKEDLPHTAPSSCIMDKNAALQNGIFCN

Cc1ccccc1-c1ccc(-c2nc(-c3cccc(COCC(=O)O)c3)no2)cc1C(F)(F)F [Example 48, [(3-{5-[2′-methyl-2-(trifluoromethyl)biphenyl-4-yl]-1,2,4-oxadiazol-3-yl}benzyl)oxy]acetic acid]
Ki [1, 4]: 9.79e-10 M
Ki [1, 5]: 1.97e-09 M
EC50 [2]: 7.12 nM
Ki [3, 6]: 6.03e-07 M
Ki [3, 7]: 1.08e-06 M

COCc1cc(-c2nc(-c3ccc(CN(C)CC(=O)O)cc3)no2)ccc1-c1ccccc1F [Example 54, N-(4-{5-[2′-fluoro-2-(methoxymethyl)biphenyl-4-yl]-1,2,4-oxadiazol-3-yl}benzyl)-N-methylglycine, hydrochloride salt]
Ki [1, 4]: 3.04e-10 M
Ki [1, 5]: 9.76e-10 M
EC50 [2]: 6.36 nM
Ki [3, 6]: 3.21e-07 M
Ki [3, 7]: 2.59e-07 M

COCc1cc(-c2nc(-c3ccc(CN(C)CC(=O)O)cc3)no2)ccc1-c1cc(F)ccc1C [Example 127, N-(4-{5-[5′-fluoro-2-(methoxymethyl)-2′-methylbiphenyl-4-yl]-1,2,4-oxadiazol-3-yl}benzyl)-N-methylglycine, hydrochloride salt]
Ki [1, 5]: 1.12e-09 M
EC50 [2]: 8.68 nM
Ki [3, 7]: 7.6e-07 M

COCc1cc(-c2nc(-c3cc(F)c(CN(C)CC(=O)O)c(F)c3)no2)ccc1-c1ccccc1C [Example 151, 2-((2,6-difluoro-4-(5-(2-(methoxymethyl)-2′-methylbiphenyl-4-yl)-1,2,4-oxadiazol-3-yl)benzyl)(methyl)amino)acetic acid, hydrochloride salt]
Ki [1, 5]: 3.53e-09 M
EC50 [2]: 21.6 nM
Ki [3, 7]: 3.9e-07 M

COCc1cc(-c2nc(-c3cccc(CCN(C)CC(=O)O)c3)no2)ccc1-c1ccccc1C [Example 86, [(2-{3-[5-(2-Methoxymethyl-2′-methyl-biphenyl-4-yl)-[1,2,4]oxadiazol-3-yl]-phenyl}-ethyl)-methyl-amino]-acetic acid]
Ki [1, 4]: 1.46e-10 M
Ki [1, 5]: 4.97e-10 M
EC50 [2]: 4.98 nM
Ki [3, 6]: 3.18e-08 M

C[C@@H]1CCCCN1c1ccc(-c2nc(-c3cccc(CN(C)CC(=O)O)c3)no2)cc1C(F)(F)F [Example 45, N-methyl-N-(3-{5-[4-[(2R)-2-methylpiperidin-1-yl]-3-(trifluoromethyl)phenyl]-1,2,4-oxadiazol-3-yl}benzyl)glycine, hydrochloride salt]
Ki [1, 4]: 5.2e-10 M
EC50 [2]: 12.1 nM
Ki [3, 6]: 1.82e-07 M

Cc1ccccc1-c1ccc(-c2nc(-c3cccc(CN(C)CC(=O)O)c3)no2)cc1C [Example 132, N-{3-[5-(2,2′-dimethylbiphenyl-4-yl)-1,2,4-oxadiazol-3-yl]benzyl}-N-methylglycine, hydrochloride salt]
Ki [1, 5]: 3.65e-09 M
EC50 [2]: 235 nM
Ki [3, 7]: 1.64e-06 M

Cc1ccccc1-c1ccc(-c2nc(-c3ccc(CNCCCC(=O)O)cc3)no2)cc1C(F)(F)F [Example 142, 4-[(4-{5-[2′-methyl-2-(trifluoromethyl)biphenyl-4-yl]-1,2,4-oxadiazol-3-yl}benzyl)amino]butanoic acid]
Ki [1, 5]: 5.49e-10 M
EC50 [2]: 0.802 nM
Ki [3, 7]: 3.73e-07 M

COCc1cc(-c2nc(-c3cccc(CN(C)CC(=O)O)c3)no2)ccc1-c1cccc(F)c1C [Example 35, N-(3-{5-[3′-fluoro-2-(methoxymethyl)-2′-methylbiphenyl-4-yl]-1,2,4-oxadiazol-3-yl}benzyl)-N-methylglycine, hydrochloride salt]
Ki [1, 4]: 1.98e-10 M
EC50 [2]: 5.88 nM
Ki [3, 6]: 9.4e-08 M

COCc1cc(-c2nc(-c3cccc(CN(C)CC(=O)O)c3)no2)ccc1N1CCCC1C (stereo not drawn) [Example 34, N-(3-{5-[3-(methoxymethyl)-4-(2-methylpyrrolidin-1-yl)phenyl]-1,2,4-oxadiazol-3-yl}benzyl)-N-methylglycine]
Ki [1, 4]: 1.18e-10 M
EC50 [2]: 13.5 nM
Ki [3, 6]: 3.03e-07 M

COCc1cc(-c2nc(-c3cc(F)c(C(=O)NCCC(=O)O)cc3F)no2)ccc1-c1ccccc1C [Example 47, N-(2,5-difluoro-4-{5-[2-(methoxymethyl)-2′-methylbiphenyl-4-yl]-1,2,4-oxadiazol-3-yl}benzoyl)-beta-alanine]
Ki [1, 4]: 8.5e-10 M
EC50 [2]: 20.2 nM
Ki [3, 6]: 4.03e-07 M
Ki [3, 7]: 5.2e-07 M

COCc1cc(-c2nc(-c3cccc(CN(C)CC(=O)O)c3)no2)ccc1-c1cc(F)ccc1Cl [Example 65, N-(3-{5-[2′-chloro-5′-fluoro-2-(methoxymethyl)biphenyl-4-yl]-1,2,4-oxadiazol-3-yl}benzyl)-N-methylglycine, hydrochloride salt]
Ki [1, 4]: 5.31e-10 M
EC50 [2]: 21.8 nM
Ki [3, 6]: 2.31e-07 M
Ki [3, 7]: 3.68e-07 M

COCc1cc(-c2nc(-c3cccc(CN(C)CC(O)CO)c3)no2)ccc1-c1ccccc1C (stereo not drawn) [Example 39, 3-[(3-{5-[2-(methoxymethyl)-2′-methylbiphenyl-4-yl]-1,2,4-oxadiazol-3-yl}benzyl)(methyl)amino]propane-1,2-diol]
Ki [1, 4]: 3.71e-10 M
Ki [1, 5]: 2.08e-09 M
EC50 [2]: 13.5 nM
Ki [3, 6]: 8.48e-07 M
Ki [3, 7]: 1.18e-06 M

COCc1cc(-c2nc(-c3ccc(CN(C)CC(=O)O)cc3F)no2)ccc1-c1ccccc1C [Example 146, 2-((3-fluoro-4-(5-(2-(methoxymethyl)-2′-methylbiphenyl-4-yl)-1,2,4-oxadiazol-3-yl)benzyl)(methyl)amino)acetic acid, hydrochloride salt]
Ki [1, 5]: 9.36e-10 M
EC50 [2]: 33.6 nM
Ki [3, 7]: 3.68e-07 M

COCc1cc(-c2nc(-c3ccc(CN(C)CC(=O)O)c(OC)c3)no2)ccc1-c1ccccc1C [Example 79, 2-((2-methoxy-4-(5-(2-(methoxymethyl)-2′-methylbiphenyl-4-yl)-1,2,4-oxadiazol-3-yl)benzyl)(methyl)amino)acetic acid, hydrochloride salt]
Ki [1, 4]: 2.69e-09 M
Ki [1, 5]: 5.33e-09 M
EC50 [2]: 47.7 nM
Ki [3, 6]: 4.84e-06 M

COCc1cc(-c2nc(-c3ccc(OCCO)c(F)c3)no2)ccc1-c1ccccc1C [Example 28, 2-(2-fluoro-4-{5-[2-(methoxymethyl)-2′-methylbiphenyl-4-yl]-1,2,4-oxadiazol-3-yl}phenoxy)ethanol]
Ki [1, 4]: 8.88e-10 M
EC50 [2]: 11.9 nM
Ki [3, 6]: 2.14e-07 M

COCc1cc(-c2nc(-c3cccc(CN(CC(=O)O)C(C)C)c3)no2)ccc1-c1ccccc1C [Example 58, N-isopropyl-N-(3-{5-[2-(methoxymethyl)-2′-methylbiphenyl-4-yl]-1,2,4-oxadiazol-3-yl}benzyl)glycine, hydrochloride salt]
Ki [1, 4]: 3.91e-10 M
EC50 [2]: 7.87 nM
Ki [3, 6]: 2.02e-07 M

COCc1cc(-c2nc(-c3cccc(CC(=O)NCCC(=O)O)c3)no2)ccc1-c1ccccc1C [Example 43, N-[(3-{5-[2-(methoxymethyl)-2′-methylbiphenyl-4-yl]-1,2,4-oxadiazol-3-yl}phenyl)acetyl]-beta-alanine]
Ki [1, 4]: 2.16e-09 M
Ki [1, 5]: 6.6e-09 M
EC50 [2]: 34.5 nM
Ki [3, 7]: 2e-07 M

CC1CCCCN1c1ccc(-c2nc(-c3cccc(COCC(=O)O)c3)no2)cc1C(F)(F)F (stereo not drawn) [Example 38, [(3-{5-[4-(2-methylpiperidin-1-yl)-3-(trifluoromethyl)phenyl]-1,2,4-oxadiazol-3-yl}benzyl)oxy]acetic acid, hydrochloride salt]
Ki [1, 4]: 6.22e-10 M
EC50 [2]: 15.4 nM
Ki [3, 6]: 6.74e-07 M

COCc1cc(-c2nc(-c3cccc(CC(=O)NCCN(C)C)c3)no2)ccc1-c1ccccc1C [Example 41, N-[2-(dimethylamino)ethyl]-2-(3-{5-[2-(methoxymethyl)-2′-methylbiphenyl-4-yl]-1,2,4-oxadiazol-3-yl}phenyl)acetamide]
Ki [1, 4]: 1.27e-09 M
Ki [1, 5]: 8.34e-09 M
EC50 [2]: 76.9 nM
Ki [3, 7]: 4.3e-06 M
